For this data set, the system named is Sprague Dawley (SD) rats. In words: Sedative/hypnotic effect (sleep time, RRR-LRR) after i.v. GHB. Type of data set: in vivo. Particulars: 1500 mg/kg GHB iv. Here is the method:
Jugular vein cannulas were surgically implanted under anesthesia with ketamine/xylazine. Cannulas were flushed daily with heparinized saline to maintain patency. Rats were allowed a minimum of 72 h for recovery from surgery before the experiments were conducted. GHB was administered intravenously as a 1000 mg/kg i.v. bolus or 1500 mg/kg iv bolus with or without AR-C155858 (1 mg/kg i.v. bolus) via a jugular vein cannula to the animals at 13 weeks of age (N = 5–7 per group). Rats were dosed in metabolic cages with ad libitum access to water to allow for the concurrent collection of blood and urine samples for up to 8 h. GHB was administered as a 300 mg/mL solution in sterile water, and the time of administration was considered as time 0. AR-C155858 was administered as a 1 mg/mL solution in 10% cyclodextrin in normal saline 5 min after GHB administration. Blood samples (200 μL) were taken from the jugular vein cannula at different time points: 5, 10, 20, 30, 60, 90, 120, 180, 240, 270, 300, and 330 min for 1000 mg/kg and 10, 30, 60, 90, 120, 180, 240, 270, 300, 330, 360, and 390/480 min for 1500 mg/kg bolus with or without AR-C155858. Plasma samples were separated by centrifugation and stored at −20 °C. Urine samples were collected at 120, 240, and 360 min for 1000 mg/kg and 120, 240, and 390/480 min for 1500 mg/kg bolus with or without AR-C155858 post-dose; the total urine volume was determined, and the samples were stored at −20 °C.
The sedative/hypnotic effects (sleep time) were determined, as described in a previous publication. The sedative/hypnotic duration effect of GHB was determined as the difference between the offset of the sedative/hypnotic effect (RRR) and the onset of the sedative/hypnotic effect (LRR).

As to `O=C(O)CCCO` [GHB, Γ-hydroxybutyric acid], the “Sleep time (RRR–LRR), average” value (testosterone-treated CST rats) is reported as 422.5 min. Where the note is “two of the testosterone-treated CST rats”, the “Sleep time, two individual rats” value is ~ 600 min.

The record behind these values is article PMC10821532, “Sex and Cross-Sex Testosterone Treatment Alters Gamma-Hydroxybutyrate Acid Toxicokinetics and Toxicodynamics in Rats” (Pharmaceutics, 2024).
